Measured values reported in patent US20090062124A1, “Ethephon-induced enhancement of seedling development” (priority 2007, published 2009).
“And” between values parts separate entries of the source, which are not always exact repeats. Equal entries are not always repeated.

Assays:
Format in all cases: in vivo
[1] = system: Soybean seedlings (46G02 RR/STS, Kelly Green Seeds); assay: Soybean seedlings sprayed with ethephon in greenhouse conditions
Protocol: Soybean seedlings (46G02 RR/STS, Kelly Green Seeds) at the cotyledon—second leaf stage were treated with ethephon in greenhouse conditions to evaluate the effects of ethephon application. All plants in the treatment groups received a single application by spraying of various concentrations of aqueous solutions of ethephon (0, 1.0, 3.8, 7.6, and 15.2 mM ethephon) to plants at the cotyledon stage. Root development, measured as tap root and lateral root lengths, and seedling growth were determined 7 days after spraying.

[2] = system: cotton seeds; assay: Cotton seeds soaked in aqueous ethephon solutions prior to planting; settings: seeds soaked 10 seconds; 10, 20, 30 and 50 mM tested
Protocol: (§1) Cotton plants were treated with ethephon in greenhouse conditions to evaluate the effects of ethephon application. All plants in the treatment groups received a single application by spraying of various concentrations of aqueous solutions of ethephon (0, 1.0, 3.8, 7.6, and 15.2 mM ethephon) to plants at the cotyledon stage. Lateral root production, leaf numbers and leaf size, and number of cotton squares were determined 7 to 80 days after spraying. To evaluate the effect on as a seed treatment, cotton seeds were soaked in aqueous ethephon solutions (10, 20, 30, and 50 mM) for 10 seconds prior to planting.

[3] = system: dryland field grown cotton; assay: Dryland field grown cotton sprayed with ethephon, seed cotton yield; settings: 3.8 mM single spray at cotyledon, two leaf or four leaf stage; vs non-treated controls; FIG. 1
Protocol: The effects of ethephon treatment on dryland field grown cotton were measured. All plants in the treatment groups received a single application by spraying of 3.8 mM ethephon at either the cotyledon stage, two leaf stage, and four leaf stage. Cotton yields, measured as seed cotton weight, were measured at the end of the season following harvest.

[4] = system: Cotton plants; assay: Cotton plants sprayed with ethephon at the cotyledon stage in greenhouse conditions
Protocol: as §1

[5] = system: wheat seedlings; assay: Wheat seedlings sprayed with ethephon in greenhouse conditions; settings: between 1 mM and 7.6 mM ethephon, seven days after spraying, vs untreated controls
Protocol: (§2) The effects of ethephon treatment on the root development of corn and wheat was evaluated. Corn and wheat seedlings at the two to three leaf stage were treated with ethephon in greenhouse conditions. All plants in the treatment groups received a single application by spraying of various concentrations of aqueous solutions of ethephon (0, 1.0, 3.8, 7.6, 11.4, 15.2 and 30.4 mM ethephon for wheat, and 0, 3.8, 5.7, 7.6, 11.4, 15.2, 30.4, 45.6, and […] ethephon for corn) to plants at the cotyledon stage. Root development, measured as tap root and lateral root lengths for corn and tap root length for wheat, and shoot length and root hair production were also determined for wheat, seven days after spraying. To evaluate the effect on as a seed treatment, wheat and corn seeds were soaked in aqueous ethephon solutions (90 mM) for 10 seconds prior to planting.

[6] = system: Corn seedlings; assay: Corn seedlings sprayed with ethephon in greenhouse conditions
Protocol: as §2

[7] = 7 days after spraying, vs untreated controls
[8] = spray, 0, 1.0, 3.8, 7.6 and 15.2 mM tested
[9] = sprayed cotton, 7 to 80 days after spraying
[10] = between 3.8 and 11.4 mM ethephon, seven days after spraying, vs untreated controls

SMILES: O=P(O)(O)CCCl [Ethephon, (2-chloroethyl)phosphonic acid]
- seedling growth [1, 7]: statistically significant increases
- taproot and lateral root development [1, 7]: statistically significant increases
- ethephon concentration giving optimum results [1, 8]: 3.8 mM
- optimum seed soak concentration [2]: 30 mM
- cotton yields (seed cotton weight) [3]: significantly increased yields
- increase in fruiting sites (cotton squares) ([4]; 3.8 mM ethephon vs control): 30%
- Average # of squares ([4]; 3.8 mM ethephon, single spray at cotyledon stage, greenhouse, average of 3 reps (control 42)): 55
- Number of squares ([4]; 3.8 mM ethephon, single spray at cotyledon stage, greenhouse, per rep): 58 and 54 and 53
- ethephon concentration giving optimum results [4, 8]: 3.8 mM
- fruiting (number of cotton squares) [4, 9]: increased fruiting
- lateral root development [4, 9]: statistically significant increases
- leaf size [4, 9]: without a decrease in leaf size
- rate of leaf production (measured as numbers of leaves) [4, 9]: statistically significant increases
- shoot length [5]: statistically significant increases
- taproot length [5]: statistically significant increases
- lateral root length [6, 10]: statistically significant increases
- taproot length [6, 10]: statistically significant increases
- ethephon concentration giving optimum results ([6]; spray, FIG. 4): 7.6 mM
